Test results taken from paper PMC13185748, “Targeting noncanonical nuclear factor kappa B signalling in CYLD cutaneous syndrome by selective inhibition of IκB kinase alpha” (The British Journal of Dermatology, 2026).

Biological target: T1, IκB kinase alpha (IKKα) (Homo sapiens, UniProt O15111)
T1 construct: gene CHUK
T1 sequence (O15111 1-745): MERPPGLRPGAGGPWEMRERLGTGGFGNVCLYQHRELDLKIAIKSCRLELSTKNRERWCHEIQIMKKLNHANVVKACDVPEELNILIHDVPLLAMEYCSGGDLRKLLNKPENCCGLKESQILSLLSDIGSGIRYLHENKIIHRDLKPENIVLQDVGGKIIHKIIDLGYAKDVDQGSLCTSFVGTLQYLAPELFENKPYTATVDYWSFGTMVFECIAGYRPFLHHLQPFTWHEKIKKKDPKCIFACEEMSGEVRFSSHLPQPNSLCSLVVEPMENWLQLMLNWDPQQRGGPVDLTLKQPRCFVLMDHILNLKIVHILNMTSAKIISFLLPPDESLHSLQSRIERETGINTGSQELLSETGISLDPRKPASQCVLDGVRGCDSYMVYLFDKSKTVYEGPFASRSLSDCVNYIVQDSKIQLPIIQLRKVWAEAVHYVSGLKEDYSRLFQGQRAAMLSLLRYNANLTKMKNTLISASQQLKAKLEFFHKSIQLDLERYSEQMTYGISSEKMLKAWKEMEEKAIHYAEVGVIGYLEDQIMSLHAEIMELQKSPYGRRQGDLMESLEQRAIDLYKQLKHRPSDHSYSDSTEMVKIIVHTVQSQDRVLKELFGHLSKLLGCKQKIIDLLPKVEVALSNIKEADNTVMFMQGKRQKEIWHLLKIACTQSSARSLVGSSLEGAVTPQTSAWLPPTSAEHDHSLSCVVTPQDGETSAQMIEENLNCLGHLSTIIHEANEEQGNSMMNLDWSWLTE
Assay: target engagement in PC3m cells by pharmacodynamic markers (p100 phosphorylation; RelB nuclear translocation), data not shown
Format: cell-based

## SU1644
  IC50: 50 nM
